Values quoted from earlier work in article PMC7395068, “The evolution of strategies to minimise the risk of human drug-induced liver injury (DILI) in drug discovery and development” (Archives of Toxicology, 2020).
Like-named read-outs stand apart in the source and are kept apart here.

Key:
[1] = ref Chen 2016; cited from earlier work
human hepatocytes = details: In vitro Assay; ref Xu 2008; cited from earlier work
[2] = cited from earlier work
[3] = tested on: HepG2 cells, primary human hepatocytes; details: In vitro Assay; ref Garside 2014; cited from earlier work
[4] = tested on: isolated mouse liver mitochondria; details: In vitro Assay; ref Porceddu 2012; cited from earlier work
rBsep = details: In vitro Assay; ref Dawson 2012; cited from earlier work
HepG2 cells [5] = details: In vitro Assay; ref O'Brien 2006; cited from earlier work
PHH = details: In vitro Assay; ref Proctor 2017; cited from earlier work
hLiMTs = details: In vitro Assay; ref Proctor 2017; cited from earlier work
PHH spheroids = details: In vitro Assay; ref Vorrink 2018; cited from earlier work
[6] = tested on: THLE-Null and THLE-3A4 cells; details: In vitro Assay; ref Gustafsson 2014; cited from earlier work
[7] = tested on: primary human hepatocytes, NIH3T3 fibroblasts, BSEP, CYP3A4; details: In vitro Assay; ref Schadt 2015; cited from earlier work
[8] = tested on: THLE or HepG2 cells, isolated mitochondria, BSEP; details: In vitro Assay; ref Aleo 2019; cited from earlier work
HepG2 cells [9] = details: In vitro Assay; ref Persson 2013; cited from earlier work

Compound | DILI +VE (5-8), DILI -VE (-4) [1] | DILI severity category [1] | Structural based (HCI) (human hepatocytes) | In vivo DILI ([2]; ref Garside 2014) | In vivo DILI ([2]; ref Gustafsson 2014) | In vivo DILI ([2]; ref Xu 2008) | Cluster 1-6 +VE Assay [3] | Inhibition of rBsep cutoff<1& cmax u>.2 (rBsep) | Inhibition of rBsep cutoff<3 (rBsep) | further results
Nc1ccc(S(=O)(=O)c2ccc(N)cc2)cc1 [dapsone] | +VE | vLess-DILI-Concern | -VE | +VE | +VE | +VE | +VE | -VE | -VE | In vivo DILI ([2]; […]): +VE; In vivo DILI ([2]; ref Dawson 2012): +VE; In vivo DILI ([2]; ref Khetani 2012): +VE; In vivo DILI ([2]; ref Porceddu 2012): +VE; in vitro data EC2<=1x Cmax [4]: +VE; in vitro data EC20<=2uM [4]: -VE
CN(CCOc1ccc(CC2SC(=O)NC2=O)cc1)c1ccccn1 (stereo not drawn) [rosiglitazone] | +VE | vLess-DILI-Concern | -VE | +VE | +VE | -VE | +VE | -VE | +VE | Structural based (HCI) (HepG2 cells [5]): -VE; PHH ATP <100uM (PHH): -VE; hLiMTs ATP <100uM (hLiMTs): +VE (IC50 threshold of 100 µM); hLiMTs ATP <20 x Cmax (PHH spheroids): -VE; In vivo DILI ([2]; […]): -VE; In vivo DILI ([2]; ref Aleo 2019): +VE; In vivo DILI ([2]; ref Dawson 2012): +VE; In vivo DILI ([2]; ref O'Brien 2006): -VE; In vivo DILI ([2]; ref Proctor 2017): +VE; In vivo DILI ([2]; ref Schadt 2015): +VE; In vivo DILI ([2]; ref Vorrink 2018): -VE; In vivo DILI ([2]; ref Williams 2019): +VE
O=C1c2c(O)ccc(O)c2C(=O)c2c(NCCNCCO)ccc(NCCNCCO)c21 [mitoxantrone] | – | – | +VE | – | – | – | +VE | – | – | in vitro data EC2<=1x Cmax [4]: -VE
Cc1ccc(S(=O)(=O)NC(=O)NN2CC3CCCC3C2)cc1 (stereo not drawn) [gliclazide] | – | – | -VE | +VE | +VE | -VE | -VE | -VE | -VE | In vivo DILI ([2]; ref Dawson 2012): +VE; THLE-Null [6]: -VE; THLE-Null/3A4 [6]: -VE
CC(C)(C)NCC(O)c1cc(O)cc(O)c1 (stereo not drawn) [terbutaline] | +VE | vLess-DILI-Concern | – | +VE | – | – | +VE | – | – | –
O=C(O)c1cc(=O)c2c(OCC(O)COc3cccc4oc(C(=O)O)cc(=O)c34)cccc2o1 [cromolyn] | – | – | -VE | – | – | – | -VE | -VE | -VE | –
CCCCc1nc(Cl)c(CO)n1Cc1ccc(-c2ccccc2-c2nn[nH]n2)cc1 [losartan] | – | – | – | – | – | – | +VE | – | – | Cellular toxicity (3T3 cells) [7]: -VE; Combined Assay [7]: +VE; GSH adduct HML [7]: +VE; Hepatocyte cellular toxicity [7]: +VE; MitoTox 3T3 [7]: -VE; TDI CYP3A4 [7]: -VE; hBSEP inhibition [7]: +VE; Partition Hybrid HRM Score [8]: +VE; Ro2 Hybrid HRM Score [8]: +VE
CCCCNC(=O)NS(=O)(=O)c1ccc(C)cc1 [tolbutamide, reference compound] | – | – | – | – | – | – | +VE | -VE | -VE | Structural based (HCI) (HepG2 cells [5]): +VE
COc1ccc(CCN2CCC(Nc3nc4ccccc4n3Cc3ccc(F)cc3)CC2)cc1 [astemizole] | – | – | -VE | +VE | – | -VE | +VE | – | – | Structural based (HCI) (HepG2 cells [5]): -VE; In vivo DILI ([2]; ref O'Brien 2006): -VE
NC(CO)C(=O)NNCc1ccc(O)c(O)c1O (stereo not drawn) [benserazide] | – | – | – | -VE | – | – | -VE | – | – | PHH ATP <100uM (PHH): -VE; hLiMTs ATP <100uM (hLiMTs): -VE; In vivo DILI ([2]; ref Proctor 2017): -VE; In vivo DILI ([2]; ref Schadt 2015): -VE
CCN(CC)Cc1cc(Nc2ccnc3cc(Cl)ccc23)ccc1O [amodiaquine] | – | – | – | +VE | +VE | – | +VE | – | – | Cluser analysis (HepG2 cells [9]): +VE; hLiMTs ATP <20 x Cmax (PHH spheroids): +VE (IC20 < 20 × Cmax.tot cut-off); In vivo DILI ([2]; […]): +VE; In vivo DILI ([2]; ref O'Brien 2006): +VE; In vivo DILI ([2]; ref Persson 2013): +VE; In vivo DILI ([2]; ref Proctor 2017): +VE; In vivo DILI ([2]; ref Schadt 2015): +VE; In vivo DILI ([2]; ref Vorrink 2018): +VE; In vivo DILI ([2]; ref Williams 2019): +VE
Cn1c(=O)c2c(ncn2CC(O)CO)n(C)c1=O (stereo not drawn) [dyphylline] | -VE | vNo-DILI-Concern | – | -VE | – | – | -VE | – | – | –
